In test [1] the test system is LPS stimulated monocytes. As to conditions: cited from earlier work.
Test [2] has as its system wild type mice challenged with LPS. Description: Tissue MIF release (western, immunohistochemistry) after LPS challenge, Enbrel pre-treatment. In kind it is in vivo, mouse. As to the method:
Louis, Mo.) and sacrificed by CO2 asphyxiation and subsequent cervical dislocation. Uninjected mice were used as controls. The two anti-MIF antibodies (III.D.9 and XIV.15.5, gift of Cytokine PharmaSciences, Inc., King of Prussia, Pa.) and their isotype control (HB-49, gift from Cytokine PharmaSciences, Inc.) were injected (100 μg in […]) intraperitoneally 90 minutes before the LPS challenge in the echocardiogram studies. […]
Protein Extraction and Western Blotting. […] Protein concentration was quantified using the Bio-Rad Protein Assay (Hercules, Calif.) and 50 μg of protein diluted in Laemmeli sample buffer (Bio-Rad) was added in a 1:1 ratio to a final volume of 10 μl and resolved on a 12% SDS polyacrylamide gel under reducing conditions. Prestained SDS-PAGE standards (Kaleidoscope Broad range, Bio-Rad Laboratories, Inc., Hercules, Calif.) were run (10 μl/lane) with each gel in order to determine the approximate M.W. of detected bands. […] The membrane was then developed for 5 minutes with 5 ml of ECL reagents (SuperSignal West Pico, Pierce, Rockford, Ill.), and the resulting chemiluminescent reaction was detected by Kodak X-OMAT AR Film (Eastman Kodak Co., Rochester, N.Y.). […]

Test [3] shares this test system. Nature of the test: Serum MIF levels (ELISA) after LPS challenge, Enbrel pre-treatment. It is filed as in vivo, mouse. As to conditions: wild type mice pre-treated (60 minutes) with Enbrel, LPS 4 mg/kg. How it is done:
Mice were injected intraperitoneally with 4 mg/kg E. coli 0111:B4 LPS (Sigma-Aldrich Corp., St. Louis, Mo.) and sacrificed by CO2 asphyxiation and subsequent cervical dislocation. Uninjected mice were used as controls. The two anti-MIF antibodies (III.D.9 and XIV.15.5, gift of Cytokine PharmaSciences, Inc., King of Prussia, Pa.) and their isotype control (HB-49, gift from Cytokine PharmaSciences, Inc.) were injected (100 μg in […]) intraperitoneally 90 minutes before the LPS challenge in the echocardiogram studies. […]
Determination of serum MIF levels. Sera from six mice were assayed for mouse MIF using the Chemikine™ Rat/Mouse macrophage inhibitory factor (MIF) EIA kit (Chemicon International, Inc., Temecula, Calif.) according to the manufacturer's instructions. Briefly, 5 μl of standards, samples, or reaction buffer (blank) were added to each well in duplicate. Diluted MIF-HRP antibody conjugate was added to each well (100 μl) and allowed to incubate for 2 hours at room temperature. Wells were then washed five times, and TMB substrate (100 μl) was allowed to incubate in the dark for 30 minutes at room temperature. The stop reagent was added to each well, gently mixed, and the ELISA was read on an ELISA plate reader (EL 312e Microplate Reader, Bio-Tek Instruments, Winooski, Vt.) at 450 nm (630 nm background) within 30 minutes of completion of the assay. […]
(In general: In an ELISA, binding on a coated surface is turned into a signal by an enzyme label.)

In the case of `COc1ccc(Cl)cc1C(=O)NCCc1ccc(S(=O)(=O)NC(=O)NC2CCCCC2)cc1` [glyburide], the “effect on MIF secretion” value in test [1] is on record as “MIF secretion did not occur”. With `CCCN(CCC)S(=O)(=O)c1ccc(C(=O)O)cc1` [probenicide], in test [1], the “effect on MIF secretion” value is listed as “MIF secretion did not occur”. With `C[C@H]1CCC/C=C/[C@@H]2C[C@H](O)C[C@H]2[C@H](O)/C=C/C(=O)O1` [brefelding A], in test [1], the “effect on MIF secretion” value is listed as “do not inhibit the secretion of MIF”. On to `CC[C@@]1([C@@H]2O[C@@H]([C@H]3O[C@@](O)(CO)[C@H](C)C[C@@H]3C)C[C@@H]2C)CC[C@H]([C@]2(C)CC[C@]3(C[C@H](O)[C@@H](C)[C@@H]([C@@H](C)[C@@H](OC)[C@H](C)C(=O)O)O3)O2)O1` [monensin], for which the “effect on MIF secretion” value in test [1] is listed as “do not inhibit the secretion of MIF”. Regarding Enbrel®, the “tissue release of MIF after LPS challenge” value in test [2] (Enbrel given just immediately prior to or after LPS instead of 90 minutes prior (data not shown)) is reported as “occurred sporatically”. Besides, the “release of MIF from cardiac, liver and spleen tissue after LPS challenge” value in test [2] (wild type mice pre-treated with Enbrel, western and immunohistochemistry) is recorded as “did not occur at any time”. Further, in test [3], the “Maximum serum MIF levels” value is ~2.3 fold baseline and the “time of maximum serum MIF levels” value was 24 h.
